According to the Kinase Knowledgebase extract (Sharma et al. 2016):

The compounds below were run against PIK3CA (human) (UniProt P42336) (assay: Assessment of PIK3CA Kinase Activity).
Chain of PIK3CA (human) (P42336 whole entry, looked up): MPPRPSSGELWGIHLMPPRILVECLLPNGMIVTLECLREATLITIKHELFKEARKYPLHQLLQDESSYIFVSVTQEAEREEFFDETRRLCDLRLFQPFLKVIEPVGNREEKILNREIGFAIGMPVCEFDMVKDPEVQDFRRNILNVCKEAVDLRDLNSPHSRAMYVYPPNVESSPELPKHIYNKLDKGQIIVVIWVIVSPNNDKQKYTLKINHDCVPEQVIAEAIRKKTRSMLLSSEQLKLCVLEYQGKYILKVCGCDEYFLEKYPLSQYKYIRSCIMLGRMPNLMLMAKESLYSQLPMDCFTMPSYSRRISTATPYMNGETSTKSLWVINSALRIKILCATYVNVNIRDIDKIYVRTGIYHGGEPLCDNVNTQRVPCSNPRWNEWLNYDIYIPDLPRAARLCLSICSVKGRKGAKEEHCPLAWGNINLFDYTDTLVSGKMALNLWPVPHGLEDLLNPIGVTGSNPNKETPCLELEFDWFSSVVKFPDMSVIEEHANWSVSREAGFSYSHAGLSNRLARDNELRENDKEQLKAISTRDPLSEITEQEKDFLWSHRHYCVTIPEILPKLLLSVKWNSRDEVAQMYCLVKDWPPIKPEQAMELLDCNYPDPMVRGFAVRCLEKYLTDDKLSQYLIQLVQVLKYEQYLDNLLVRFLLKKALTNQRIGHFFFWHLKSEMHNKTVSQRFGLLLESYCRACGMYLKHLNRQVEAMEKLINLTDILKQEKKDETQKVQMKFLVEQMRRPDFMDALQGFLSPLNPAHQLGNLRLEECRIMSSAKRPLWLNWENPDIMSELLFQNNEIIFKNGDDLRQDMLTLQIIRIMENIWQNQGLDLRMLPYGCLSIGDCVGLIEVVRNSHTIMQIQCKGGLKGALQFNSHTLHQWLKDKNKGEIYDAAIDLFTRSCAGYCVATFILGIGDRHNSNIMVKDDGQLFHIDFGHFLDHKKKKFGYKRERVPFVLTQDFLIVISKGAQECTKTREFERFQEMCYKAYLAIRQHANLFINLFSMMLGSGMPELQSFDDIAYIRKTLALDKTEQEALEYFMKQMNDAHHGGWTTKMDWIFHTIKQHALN

Row | IC50 [nM] | Structure (SMILES)
1 | < 1000 | CC(C)n1ncnc1-c1cc2n(n1)-c1cc(C3CNC3)ccc1OCC2
2 | < 1000 | Cc1nc(-c2cn3c(n2)-c2ccc(-c4cnn(CC(C)C(=O)O)c4)cc2OCC3)n(C(C)C)n1 (stereo not drawn)
3 | < 1000 | CC(C)n1ncnc1-c1cn2c(n1)-c1ccc(-c3cncn3CCO)cc1OCC2
4 | < 1000 | CC[C@H](Oc1ccc2c(c1)OCCn1cc(-c3ncnn3CC(F)(F)F)nc1-2)C(N)=O
5 | < 1000 | Cc1cn(C(C)C)c(-c2cn3c(n2)-c2ccc(-c4cnn(CC(C)(C)O)c4)cc2OCC3)n1
6 | < 1000 | CC(C)n1nccc1-c1cn2c(n1)-c1cc(C(N)=O)ccc1OCC2
7 | < 1000 | Cc1nc(-c2cn3c(n2)-c2ccc(C4CCN(CCO)CC4)cc2OCC3)n(C(C)C)n1
8 | < 1000 | CN(C)c1cc2c(cn1)-c1nc(-c3ncnn3-c3ccccc3Cl)cn1CCO2
9 | < 1000 | Cc1nc(-c2cn3c(n2)-c2ccc(C4CCN(C(C)(C)C(N)=O)CC4)cc2OCC3)n(C(C)C)n1
10 | < 1000 | CC(C)n1nc(CC(N)=O)nc1-c1cn2c(n1)-c1ccc(Br)cc1OCC2
11 | < 1000 | Cc1nc(-c2cn3c(n2)-c2ccc(CC(N)=O)cc2OCC3)n(C(C)C)n1
12 | < 1000 | CC(C)n1ncnc1-c1cn2c(n1)-c1ccc(C3CCN(CCS(=O)(=O)N(C)C)CC3)cc1OCC2
13 | < 1000 | CC(C)n1ncnc1-c1cn2c(n1)-c1ccc(N[C@@H](C)C(N)=O)cc1OCC2
14 | < 1000 | CC(C)n1nc(N)nc1-c1cn2c(n1)-c1ccc(-c3cnn(CCO)c3)cc1OCC2
15 | < 1000 | CC(C)n1nc(CO)nc1-c1cn2c(n1)-c1ccc(-c3cnn(CC(C)(C)O)c3)cc1OCC2
16 | < 1000 | CC(C)n1nccc1-c1cn2c(n1)-c1cnc(N3CCC[C@H]3C(N)=O)cc1OCC2
17 | < 1000 | CC(C)n1ncnc1-c1cn2c(n1)-c1ccc(C3CCN(CCO)CC3)cc1OCC2
18 | < 1000 | Cc1nc(-c2cn3c(n2)-c2ccc(-c4cnc(N)nc4)cc2OCC3)n(C(C)C)n1
19 | < 1000 | CC(C)n1ncnc1-c1cn2c(n1)-c1cc(Br)ccc1OCC2
20 | < 1000 | COc1ccc(CNc2cc3c(cn2)-c2nc(-c4ncnn4CC(F)(F)F)cn2CCO3)cc1OC
21 | < 1000 | CC(C)n1ncnc1-c1cn2c(n1)-c1cc(NC3CNC3)ncc1OCC2
22 | < 1000 | CC(C)n1ncnc1-c1cn2c(n1)-c1ccc([C@@H](C)C(N)=O)cc1OCC2
23 | < 1000 | CC(C)n1ncnc1-c1cn2c(n1)-c1cnc(N[C@@H](C)C(N)=O)cc1OCC2
24 | < 1000 | CC(C)n1ncnc1-c1cn2c(n1)-c1cnc(N[C@H](C)C(N)=O)cc1OCC2
25 | < 1000 | CC(C)n1nccc1-c1cn2c(n1)-c1cnc(Cl)cc1OCC2

Row | IC50 [nM] | Structure (SMILES)
26 | < 1000 | CCOc1ccccc1-c1cn2c(n1)-c1ccc(C(=O)OC)cc1OCC2
27 | < 1000 | OCCN1CCC(c2ccc3c(c2)-c2nn(-c4ncnn4-c4ccc(F)cc4F)cc2CCO3)CC1
28 | < 1000 | Cc1nc(-c2cn3c(n2)-c2ccc(OC4COC4)cc2OCC3)n(C(C)C)n1
29 | < 1000 | Cc1nc(-c2cn3c(n2)-c2ccc(-c4cn(CCO)cn4)cc2OCC3)n(C(C)C)n1
30 | < 1000 | NC(=O)[C@@H]1CCCN1c1cc2c(cn1)-c1nc(-c3ncnn3-c3ccc(F)cc3F)cn1CCO2
31 | < 1000 | OCCN1CC(c2ccc3c(c2)OCCc2cn(-c4ncnn4-c4ccc(F)cc4F)nc2-3)C1
32 | < 1000 | CC(C)n1ncnc1-c1cn2c(n1)-c1ccc(NCC3(N)COC3)cc1OCC2
33 | < 1000 | CC(C)n1nc(N)nc1-c1cn2c(n1)-c1ccc(-c3cn(CCO)cn3)cc1OCC2
34 | < 1000 | CC(C)n1ncnc1-c1cn2c(n1)-c1ccc(OC(F)F)cc1OCC2
35 | < 1000 | CNC(=O)CN1CCC(c2ccc3c(c2)OCCn2cc(-c4nc(C)nn4C(C)C)nc2-3)CC1
36 | < 1000 | CC(C)n1ncnc1-c1cn2c(n1)-c1ccc(C3CCN(CCS(C)(=O)=O)CC3)cc1OCC2
37 | < 1000 | Cc1nc(-c2cn3c(n2)-c2ccc(F)cc2OCC3)n(C(C)C)n1
38 | < 1000 | CC(C)n1ncnc1-c1cn2c(n1)-c1cc(-c3ccc(=O)[nH]c3)ncc1OCC2
39 | < 1000 | CN(C)c1cc2c(cn1)-c1nc(-c3nc(CO)nn3CC(F)(F)F)cn1CCO2
40 | < 1000 | Cc1nc(-c2cn3c(n2)-c2ccc(C4CCN(CC(=O)N(C)C)CC4)cc2OCC3)n(C(C)C)n1
41 | < 1000 | CNc1ccc2c(n1)OCCn1cc(-c3ncnn3C(C)C)nc1-2
42 | < 1000 | CNC(=O)c1ccc2c(c1)-c1nn(-c3ncnn3C(C)C)cc1CCO2
43 | < 1000 | NC(=O)CNc1ccc2c(c1)OCCn1cc(-c3ncnn3CC(F)(F)F)nc1-2
44 | < 1000 | CC(C)n1ncnc1-c1cn2c(n1)-c1ccc(OCC(F)(F)F)cc1OCC2
45 | < 1000 | CC(C)N(CCO)C(=O)c1cn2c(n1)-c1ccc(C3CCN(CC(=O)N(C)C)CC3)cc1OCC2
46 | < 1000 | NC(=O)[C@@H]1CNCCN1c1ccc2c(c1)OCCn1cc(-c3ncnn3CC(F)(F)F)nc1-2
47 | < 1000 | CC(C)NC(=O)CN1CCN(c2cc3c(cn2)-c2nc(-c4ncnn4C(C)C)cn2CCO3)CC1
48 | < 1000 | CC(C)n1ncnc1-c1cn2c(n1)-c1ccc(OC(C(N)=O)C3CC3)cc1OCC2 (stereo not drawn)
49 | < 1000 | COCc1nc(-c2cn3c(n2)-c2ccc(-c4cnn(CC(C)(C)O)c4)cc2OCC3)n(C(C)C)n1
50 | < 1000 | Clc1ccc(-c2ccc3c(c2)OCCn2cc(-c4ncnn4-c4ccccc4Cl)nc2-3)cc1

Row | IC50 [nM] | Structure (SMILES)
51 | < 1000 | CC(C)n1ncnc1-c1cn2c(n1)-c1cc(-c3ccc[nH]c3=O)ncc1OCC2
52 | < 1000 | CC(C)(O)Cn1cc(-c2ccc3c(c2)OCCn2cc(C(=O)N4CCS(=O)(=O)CC4)nc2-3)cn1
53 | < 1000 | CC(C)n1nc(N)nc1-c1cn2c(n1)-c1cc(-c3cncnc3)ccc1OCC2
54 | < 1000 | O=C(c1ccc2c(c1)-c1nc(-c3ncnn3-c3ccc(F)cc3F)cn1CCO2)N1CCN(CCO)CC1
55 | < 1000 | CC(C)n1ncnc1-c1cn2c(n1)-c1ccc(N3CCC[C@H]3C(N)=O)cc1OCC2
56 | < 1000 | Cc1nc(-c2cn3c(n2)-c2ccc(-c4cnn(CC(C)(C)O)c4)cc2OCC3)n(C(C)C)n1
57 | < 1000 | C[C@@H]1CN(C(=O)c2ccc3c(c2)-c2nc(-c4ncnn4CC(F)(F)F)cn2CCO3)C[C@H](C)N1
58 | < 1000 | CC(C)n1ncnc1-c1cc2n(n1)-c1cc(C(=O)Nc3cnn(CCO)c3)ccc1OCC2
59 | < 1000 | CC(C)n1ncnc1-c1cn2c(n1)-c1cnc(NCC(O)c3nccn3C)cc1OCC2 (stereo not drawn)
60 | < 1000 | CC(C)n1nccc1-c1cn2c(n1)CCOc1cc(C(N)=O)cnc1-2
61 | < 1000 | Nc1nc(-c2cn3c(n2)-c2cc(-c4cncnc4)ccc2OCC3)n(-c2ccccc2Cl)n1
62 | < 1000 | CNC(=O)CN1CCN(c2ccc3c(n2)OCCn2cc(-c4ncnn4C(C)C)nc2-3)CC1
63 | < 1000 | Nc1nc(-c2cn3c(n2)-c2cc(-c4ccc(Cl)cc4)ccc2OCC3)n(-c2ccccc2Cl)n1
64 | < 1000 | COC(=O)C(C)(C)n1cc(-c2ccc3c(c2)OCCn2cc(-c4nc(C)nn4C(C)C)nc2-3)cn1
65 | < 1000 | CNc1nc(-c2cn3c(n2)-c2ccccc2OCC3)n(C(C)C)n1
66 | < 1000 | Cc1ncc(-c2ccc3c(c2)OCCn2cc(-c4ncnn4C(C)C)nc2-3)n1C
67 | < 1000 | Cc1nc(-c2cn3c(n2)-c2cc(-c4ccc(=O)[nH]c4)ccc2OCC3)n(C(C)C)n1
68 | < 1000 | CS(=O)(=O)CCN1CCC(CO)(c2ccc3c(c2)-c2nn(-c4ncnn4-c4ccc(F)cc4F)cc2CCO3)CC1
69 | < 1000 | COCc1nc(-c2cn3c(n2)-c2ccccc2OCC3)n(C(C)C)n1
70 | < 1000 | CC(C)n1cnnc1-n1cc2c(n1)-c1ccccc1OCC2
71 | < 1000 | NC(=O)CNc1cc2c(cn1)-c1nc(-c3ncnn3CC(F)(F)F)cn1CCO2
72 | < 1000 | Cc1nc(-c2cn3c(n2)-c2ccc(OC4CCC4)cc2OCC3)n(C(C)C)n1
73 | < 1000 | CC(C)n1ncnc1-c1cn2c(n1)-c1cnc(N3C[C@H](F)C[C@H]3C(N)=O)cc1OCC2
74 | < 1000 | Cc1nc(-c2cn3c(n2)-c2ccc(-c4cnn(CCN5CCOCC5)c4)cc2OCC3)n(C(C)C)n1
75 | < 1000 | CC(C)n1ncnc1-c1cn2c(n1)-c1ccc(O[C@@H](CCO)C(N)=O)cc1OCC2

Row | IC50 [nM] | Structure (SMILES)
76 | < 1000 | CC(C)n1ncnc1-c1cn2c(n1)-c1cnc(N3CCC(CO)CC3)cc1OCC2
77 | < 1000 | CC(C)N1CCN(C(=O)c2ccc3c(c2)-c2nc(-c4ncnn4-c4ccccc4Cl)cn2CCO3)CC1
78 | < 1000 | c1cn(CCN2CCOCC2)c(-c2cn3c(n2)-c2cc(-c4cn[nH]c4)ccc2OCC3)n1
79 | < 1000 | CC(Sc1ccc2c(c1)OCCn1cc(-c3ncnn3C(C)C)nc1-2)C(N)=O (stereo not drawn)
80 | < 1000 | CC(C)(O)CN1CCC(c2ccc3c(c2)-c2nn(-c4ncnn4-c4ccc(F)cc4F)cc2CCO3)CC1
81 | 58 | Fc1ccc(-n2ncnc2-n2cc3c(n2)-c2ccc(Br)cc2OCC3)c(F)c1
82 | < 1000 | Cc1ncc(-c2ccc3c(c2)OCCn2cc(-c4ncnn4C(C)C)nc2-3)n1CCO
83 | < 1000 | COC(=O)c1ccc2c(c1)OCCn1cc(-c3ccccc3C(C)C)nc1-2
84 | < 1000 | CC(C)n1ncnc1-c1cn2c(n1)-c1ccc(N3CCNC(=O)C3)nc1OCC2
85 | < 1000 | CC(C)n1ncnc1-c1cn2c(n1)-c1ccc(O)cc1OCC2
86 | < 1000 | CC(C)n1ncnc1-c1cn2c(n1)-c1cc(N3CCNC(=O)C3)ncc1OCC2
87 | < 1000 | CC(C)n1ncnc1-c1cn2c(n1)-c1cc(C(N)=O)ccc1OCC2
88 | < 1000 | CCCC(Oc1ccc2c(c1)OCCn1cc(-c3ncnn3C(C)C)nc1-2)C(N)=O (stereo not drawn)
89 | < 1000 | Cc1nc(-c2cn3c(n2)-c2ccc([C@@H]4CCNC[C@@H]4O)cc2OCC3)n(C(C)C)n1
90 | < 1000 | CC(C)n1ncnc1-c1cn2c(n1)-c1cc(C(F)F)ncc1OCC2
91 | < 1000 | CC(C)n1ncnc1-c1cn2c(n1)-c1cnc(N3CCOCC3)cc1OCC2
92 | < 1000 | CC(C)n1nccc1-c1cn2c(n1)-c1ccc(CN)cc1OCC2
93 | < 1000 | CNC(=O)c1ccc2c(c1)OCCn1cc(-c3ncnn3CC(F)(F)F)nc1-2
94 | < 1000 | NC(=O)[C@@H]1CCCCN1c1ccc2c(c1)OCCn1cc(-c3ncnn3CC(F)(F)F)nc1-2
95 | < 1000 | CC(C)(O)CN1CC(c2ccc3c(c2)OCCc2cn(-c4ncnn4-c4ccc(F)cc4F)nc2-3)C1
96 | < 1000 | CC(C)n1ncnc1-c1cn2c(n1)-c1ccc(N3CC[C@H]3C(N)=O)cc1OCC2
97 | < 1000 | CC(C)n1ncnc1-c1cn2c(n1)-c1ccc(-c3cnc[nH]3)cc1OCC2
98 | < 1000 | CC(C)n1ccnc1-c1cn2c(n1)-c1cnc(N3CCC[C@H]3C(N)=O)cc1OCC2
